{"source": "ChEMBL document CHEMBL1201862", "about": "“PubChem BioAssay data set” (2004)", "key": {"[1]": {"molecular_target": "Arf-GAP with SH3 domain, ANK repeat and PH domain-containing protein 1 (Homo sapiens, UniProt Q9ULH1)", "assay_type": "functional"}, "cells [2]": {"assay": "cells", "assay_type": "functional, cell-based"}, "cells [3]": {"assay": "cells", "assay_type": "functional, cell-based", "remark": "listed apart in the source"}, "[4]": {"molecular_target": "ADP-ribosylation factor GTPase-activating protein 1 (Rattus norvegicus, UniProt Q62848)", "assay": "Fluorescence polarization-based biochemical high throughput dose response screening assay to identify inhibitors of ADP-ribosylation factor GTPase activating protein 1 (ARFGAP1).", "assay_type": "functional"}, "Major prion protein": {"molecular_target": "Major prion protein (Homo sapiens, UniProt P04156)", "assay_type": "functional, cell-based"}, "cells [5]": {"assay": "cells"}, "[6]": {"molecular_target": "NAD-dependent protein deacylase sirtuin-5, mitochondrial (Homo sapiens, UniProt Q9NXA8)", "assay": "blockers of sirtuin-5 peptide desuccinylation – biochemical, fluorescence imaging, cherry-pick, set 6, dose response (AID 720597)"}, "[7]": {"assay": "general cell-killing toxicity readout – plate reader, dry powder samples, cytotoxicity control for PAX8 inhibitor project, dose response (AID 743021)", "assay_type": "functional, cell-based"}, "[8]": {"assay": "reduction of Shn3 3'UTR-driven luciferase in osteoblasts – cell-based, Clone20 osteoblasts, firefly luciferase, cherry-picked, dose response (AID 624132)", "assay_type": "functional"}, "[9]": {"assay": "loss of viability in HepG2 cells – cell-based, CellTiter-Glo, cherry-picked, cytotoxicity control for Shn3 inhibitor project, dose response (AID 624134)", "assay_type": "functional"}, "[10]": {"assay": "Fluorescence-based cell-based high throughput dose response assay for inhibitors of the interaction of nucleotide-binding oligomerization domain containing 2 (NOD2) and the receptor-interacting serine-threonine kinase 2 (RIPK2).", "assay_type": "functional", "details": "Homo sapiens"}, "Paired box protein Pax-8": {"molecular_target": "Paired box protein Pax-8 (Homo sapiens, UniProt Q06710)", "assay": "PAX8 transcriptional activity inhibition in RMG-I – RMG-I cells, luciferase, cherry-pick, dose response (AID 687027);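 further: luciferase reporter driven by Pax8 target thyroperoxidase promoter measured by SteadyGlo luminescence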", "assay_type": "functional, cell-based"}, "Beta Lactamase": {"molecular_target": "Beta Lactamase (Pseudomonas aeruginosa, UniProt Q932Y6)", "assay": "BLA reporter interference, concentration series – BLA reporter cells, FRET fluorescence, artefact control for NOD2-RIPK2 interaction inhibitor project, dose response (AID 651552)", "assay_type": "functional, cell-based"}, "[11]": {"assay": "non-specific 3'UTR reporter inhibition in Clone20-Shn3RL – cell-based, Renilla luciferase, cherry-picked, counter-screen for Shn3 inhibitor project, dose response (AID 624133)", "assay_type": "functional"}, "[12]": {"molecular_target": "T1, Disintegrin and metalloproteinase domain-containing protein 17 (Homo sapiens, UniProt P78536)", "assay": "exosite inhibitors of ADAM17, dose response, biochemical (AID 743260)"}, "[13]": {"assay": "potency of ADAM10 substrate cleavage blockers – biochemical, QFRET, dose response (AID 743254);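 further: ADAM10 enzyme with the DM2 quenched FRET peptide as substrate; EDANS fluorescence gain as the protease cuts the substrate; inhibitor potency against ADAM10 proteolytic activity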"}, "[14]": {"molecular_target": "T1, Disintegrin and metalloproteinase domain-containing protein 17", "assay": "inhibition of ADAM17 substrate cleavage – biochemical, quenched FRET substrate, counter-screen for ADAM10 exosite inhibitor project, dose response (AID 743253)"}, "[15]": {"assay": "DRD fibroblast viability loss – cell-based, non-viral oncogenic, luminescence, dose response (AID 1934)", "assay_type": "functional", "details": "Homo sapiens"}, "[16]": {"assay": "luciferase reporter signal reduction – luminescence, H4-C neuroglioblastoma cells, dose response (AID 2458);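 further: H4 neuroglioblastoma cells stably carrying a luciferase reporter gene fusion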", "assay_type": "functional, cell-based"}, "[17]": {"assay": "toxicity toward HEK293 cells – cell-based, dry powder samples, cytotoxicity control, dose response (AID 720567)", "assay_type": "functional"}, "BJ [18]": {"test_system": "BJ", "assay": "BJ-TERT fibroblast viability loss – cell-based, RAS-independent, luminescence, dose response (AID 1933)", "assay_type": "functional", "details": "Homo sapiens"}, "[19]": {"assay": "alpha-synuclein stem-loop luciferase translation blockers – H4 neuroglioma cells, luminescence, confirmation (AID 1988)", "assay_type": "functional, cell-based"}, "BJ [20]": {"test_system": "BJ", "assay": "cells", "assay_type": "functional, cell-based", "details": "Homo sapiens"}, "[21]": {"assay": "alpha-synuclein stem-loop translation blockers – luminescence, H4 neuroglioblastoma cells, dose confirmation, confirmation (AID 2454)", "assay_type": "functional, cell-based"}, "cells [22]": {"assay": "cells", "assay_type": "functional, cell-based", "remark": "listed apart in the source"}, "[23]": {"assay": "luciferase reporter signal suppression in cells – H4 neuroglioma cells, luminescence, dose response (AID 1990)", "assay_type": "functional, cell-based"}, "BJ [24]": {"test_system": "BJ", "assay": "BJ-TERT-LT-ST fibroblast viability loss – cell-based, RAS-independent, luminescence, dose response (AID 1935);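 further: BJ fibroblasts immortalized with TERT plus LT and ST oncogenes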", "assay_type": "functional", "details": "Homo sapiens"}, "[25]": {"assay": "viability loss in MITF-independent A375 cells – cell-based, CellTiter-Glo luminescence, dry powder, set 2, counter-screen for MITF inhibitor project, dose response (AID 624489);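 further: actives are compounds lowering A375 viability meaning general cytotoxicity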", "assay_type": "functional", "details": "A-375"}, "[26]": {"assay": "cytotoxicity in MITF-independent A375 cells – cell-based, CellTiter-Glo luminescence, dry powder, set 4, counter-screen for MITF inhibitor project, dose response (AID 624364);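 further: A375 melanoma cells are MITF independent so this is a counter screen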", "assay_type": "functional", "details": "A-375"}, "[27]": {"molecular_target": "Fructose-bisphosphate aldolase (Mycobacterium tuberculosis, UniProt P9WQA3)", "assay": "Fluorescence-based biochemical high throughput dose response assay for inhibitors of the fructose-bisphosphate aldolase (FBA) of M. tuberculosis.", "assay_type": "functional"}, "[28]": {"molecular_target": "FAD-linked sulfhydryl oxidase ALR (Homo sapiens, UniProt P55789)", "assay": "ALR-catalysed DTT oxidation blockers – biochemical, H2O2 detection, luminescence, cherry-pick, dose response (AID 493248)"}, "[29]": {"molecular_target": "SWI/SNF-related matrix-associated actin-dependent regulator of chromatin subfamily A member 2 (Homo sapiens, UniProt P51531)", "assay": "Luminescence-based cell-based high throughput dose response assay to identify activators of the function of SWI/SNF related, matrix associated, actin dependent regulator of chromatin, subfamily a, member 2 (SMARCA2, BRM).", "assay_type": "functional"}, "[30]": {"assay": "Counterscreen for activators of the function of SWI/SNF related, matrix associated, actin dependent regulator of chromatin, subfamily a, member 2 (SMARCA2, BRM): Luminescence-based cell-based high throughput dose response assay to identify non-selective compounds using the VP16 reporter assay.", "assay_type": "functional"}, "cells [31]": {"assay": "cells", "assay_type": "functional, cell-based", "remark": "listed apart in the source"}, "cells [32]": {"assay": "cells", "assay_type": "functional, cell-based", "remark": "listed apart in the source"}, "[33]": {"molecular_target": "T2, Trace amine-associated receptor 1 (Homo sapiens, UniProt Q96RJ0)", "T2 sequence (Q96RJ0 whole entry)": "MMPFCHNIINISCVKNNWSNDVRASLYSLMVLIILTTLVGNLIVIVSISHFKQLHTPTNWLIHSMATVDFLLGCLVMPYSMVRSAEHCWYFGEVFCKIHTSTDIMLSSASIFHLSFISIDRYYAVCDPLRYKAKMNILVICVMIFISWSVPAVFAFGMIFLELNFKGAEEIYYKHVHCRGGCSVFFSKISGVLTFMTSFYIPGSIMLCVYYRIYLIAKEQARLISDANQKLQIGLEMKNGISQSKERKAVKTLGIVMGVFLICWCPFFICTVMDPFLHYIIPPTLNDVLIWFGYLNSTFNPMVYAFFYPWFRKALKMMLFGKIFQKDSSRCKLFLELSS", "assay": "Counterscreen for agonists of the human trace amine associated receptor 1 (hTAAR1): Fluorescence-based cell-based high throughput dose response assay to identify hTAAR1 agonist that also desensitize TAAR1 receptor response.", "assay_type": "functional"}, "[34]": {"molecular_target": "T2, Trace amine-associated receptor 1", "assay": "Fluorescence-based cell-based high throughput dose response assay to identify agonists of the human trace amine associated receptor 1 (TAAR1).", "assay_type": "functional"}}, "note": "Calls of active or inactive are those of the source.", "data": [{"compound": "Cc1ccc2nc(SCC(=O)N3CCCCC3)nc(=O)n2c1", "values": [{"measurement": "IC50", "setting": "[1]", "value": "45.9 µM (inactive)"}, {"measurement": "EC50", "setting": "cells [2]", "value": "> 350 µM (not active)"}, {"measurement": "EC50", "setting": "cells [3]", "value": "> 350 µM (not active)"}, {"measurement": "IC50", "setting": "[4]", "value": "32 µM (inactive)"}]}, {"compound": "COC(=O)c1sc(N=C(S)NNC(=O)c2c(Br)c(C)nn2C)c(C(=O)OC)c1C", "values": [{"measurement": "IC50", "setting": "Major prion protein", "value": "1.16 µM (active)"}, {"measurement": "IC50", "setting": "cells [5]", "value": "> 138 µM (inactive)"}]}, {"compound": "COc1ccc(NC(=O)N(C)C[C@H]2Oc3ccc(NS(=O)(=O)c4ccc(F)cc4)cc3C(=O)N([C@@H](C)CO)C[C@H]2C)cc1", "values": [{"measurement": "AC50", "setting": "[6]", "value": "> 30 µM (inactive)"}]}, {"compound": "C=C1C(=O)[C@]23C[C@H]1CCC2[C@@]1(C)C(C[C@@H]3O)[C@](C)(C(=O)OC)CC[C@@H]1O", "note": "(stereo partly specified)", "values": [{"measurement": "AC50", "setting": "[7]", "value": "38.2 µM (active)"}, {"measurement": "AC50", "setting": "[8]", "value": "2.58 µM (active)"}, {"measurement": "AC50", "setting": "[9]", "value": "15.8 µM (active)"}, {"measurement": "IC50", "setting": "[10]", "value": "2.3 µM (active)"}, {"measurement": "AC50", "setting": "Paired box protein Pax-8", "value": "1.71 µM (active)"}, {"measurement": "IC50", "setting": "Beta Lactamase", "value": "24.2 µM (inactive)"}, {"measurement": "AC50", "setting": "[11]", "value": "7.06 µM (active)"}]}, {"compound": "COc1ccc(N(CC(O)Cn2c3ccccc3c3ccccc32)S(=O)(=O)c2ccccc2)cc1", "note": "(stereo unspecified)", "values": [{"measurement": "IC50", "setting": "[12]", "value": "> 69.5 µM (inactive)"}, {"measurement": "IC50", "setting": "[13]", "value": "> 69.5 µM (inactive)"}, {"measurement": "IC50", "setting": "[14]", "value": "> 69.5 µM (inactive)"}]}, {"compound": "CNc1ncc(C(=O)c2ccc(Cl)cc2)s1", "values": [{"measurement": "IC50", "setting": "Major prion protein", "value": "6.92 µM (active)"}, {"measurement": "IC50", "setting": "cells [5]", "value": "> 138 µM (inactive)"}]}, {"compound": "COc1ccc(-n2nnnc2SCC(=O)c2ccc3c(c2)OCCO3)c(OC)c1", "values": [{"measurement": "IC50", "setting": "[1]", "value": "12.6 µM (inactive)"}, {"measurement": "IC50", "setting": "[4]", "value": "17.7 µM (inactive)"}]}, {"compound": "COc1ccc(NC(=O)C(=O)c2cn(CC(=O)N3CCCC3)c3ccccc23)cc1", "values": [{"measurement": "EC50", "setting": "[15]", "value": "2.25 µM (active)"}, {"measurement": "EC50", "setting": "[16]", "value": "0.323 µM (active)"}, {"measurement": "AC50", "setting": "[17]", "value": "0.143 µM (active)"}, {"measurement": "EC50", "setting": "BJ [18]", "value": "2.77 µM (active)"}, {"measurement": "EC50", "setting": "[19]", "value": "< 0.1 µM (active)"}, {"measurement": "EC50", "setting": "BJ [20]", "value": "1.54 µM (active)"}, {"measurement": "EC50", "setting": "[21]", "value": "0.681 µM (active)"}, {"measurement": "EC50", "setting": "cells [22]", "value": "0.515 µM (active)"}, {"measurement": "EC50", "setting": "[23]", "value": "0.269 µM (inconclusive)"}, {"measurement": "EC50", "setting": "BJ [24]", "value": "2.34 µM (inconclusive)"}]}, {"compound": "O=C1C(NS(=O)(=O)c2ccc(Br)s2)=C(N2CCSCC2)C(=O)c2ccccc21", "values": [{"measurement": "AC50", "setting": "[25]", "value": "> 70 µM (inactive)"}, {"measurement": "AC50", "setting": "[26]", "value": "> 70 µM (inactive)"}]}, {"compound": "Cc1cc(OC(C)C(=O)NCCCN2CCOCC2)c2c(C)cc(=O)oc2c1", "note": "(stereo unspecified)", "values": [{"measurement": "IC50", "setting": "[27]", "value": "1.32 µM (active)"}]}, {"compound": "Cc1ccc(O)c(CNc2nc3ccccc3n2C)c1", "values": [{"measurement": "AC50", "setting": "[28]", "value": "9.83 µM (active)"}, {"measurement": "EC50", "setting": "[29]", "value": "> 91.2 µM (inactive)"}, {"measurement": "EC50", "setting": "[30]", "value": "> 91.2 µM (inactive)"}]}, {"compound": "O=C(CSC1=NS(=O)(=O)c2ccccc2N1)NCCc1ccccc1", "values": [{"measurement": "EC50", "setting": "cells [31]", "value": "> 29.9 µM (inactive)"}, {"measurement": "IC50", "setting": "cells [32]", "value": "> 29.9 µM (inactive)"}, {"measurement": "IC50", "setting": "[33]", "value": "6.94 µM (active)"}, {"measurement": "EC50", "setting": "[34]", "value": "3.33 µM (active)"}]}]}
